# Measured values published in ChEMBL document CHEMBL3044921, “Synthesis, characterization, and SAR studies of new (1H-indol-3-yl)alkyl-3-(1H-indol-3-yl)propanamide derivatives as possible antimicrobial and antitubercular agents” (2013).
# Key:
# [1] = test system: Candida albicans; assay: Antifungal activity against Candida albicans assessed as growth inhibition at […] to […] ug/ml after 3 to 4 days by agar well diffusion method; type: functional
# [2] = test system: Mycobacterium tuberculosis; assay: Antitubercular activity against Mycobacterium tuberculosis H37Rv ATCC 27294 assessed as growth inhibition at 1 to 100 ug/mL after 7 days by resazurin reduction test; type: functional; conditions: for MIC: Mycobacterium tuberculosis, H37Rv ATCC 27294, 168 h
# [3] = test system: Pseudomonas aeruginosa; type: functional, ATCC 27853
# Description: Antibacterial activity against Pseudomonas aeruginosa ATCC 27853 assessed as growth inhibition at 1.56 to 25 ug/ml after 3 to 4 days by agar well diffusion method
# [4] = test system: Mycobacterium tuberculosis; assay: Antitubercular activity against Mycobacterium tuberculosis H37Rv ATCC 27294 assessed as growth inhibition at 0.3125 to 5 ug/mL after 7 days by resazurin reduction test; type: functional; conditions: H37Rv ATCC 27294, 168 h
# [5] = test system: Talaromyces marneffei; assay: Antifungal activity against Talaromyces marneffei assessed as growth inhibition after 3 to 4 days by serial plate dilution method; type: functional
# [6] = test system: Mycolicibacterium smegmatis; assay: Antitubercular activity against Mycobacterium smegmatis ATCC 19420 assessed as growth inhibition at 0.3125 to 5 ug/mL after 7 days by resazurin reduction test; type: functional; conditions: ATCC 19420, 168 h
# [7] = test system: Staphylococcus aureus; type: functional, ATCC 25923
# Description: Antibacterial activity against Staphylococcus aureus ATCC 25923 assessed as growth inhibition at 1.56 to 25 ug/ml after 3 to 4 days by agar well diffusion method
# [8] = test system: Aspergillus flavus; assay: Antifungal activity against Aspergillus flavus NCIM 524 assessed as growth inhibition at […] to […] ug/ml after 3 to 4 days by agar well diffusion method; type: functional
# [9] = test system: Trichophyton mentagrophytes; assay: Antifungal activity against Trichophyton mentagrophytes assessed as growth inhibition at […] to […] ug/ml after 3 to 4 days by agar well diffusion method; type: functional
# [10] = test system: Aspergillus fumigatus; assay: Antifungal activity against Aspergillus fumigatus NCIM 902 assessed as growth inhibition after 3 to 4 days by serial plate dilution method; type: functional
# [11] = test system: Mycolicibacterium fortuitum; assay: Antitubercular activity against Mycobacterium fortuitum ATCC 19542 assessed as growth inhibition at 0.3125 to 5 ug/mL after 7 days by resazurin reduction test; type: functional; conditions: ATCC 19542, 168 h
# [12] = test system: Escherichia coli; type: functional, ATCC 24922
# Description: Antibacterial activity against Escherichia coli ATCC 24922 assessed as growth inhibition at 1.56 to 25 ug/ml after 3 to 4 days by agar well diffusion method
# [13] = test system: Talaromyces marneffei; assay: Antifungal activity against Talaromyces marneffei assessed as growth inhibition at […] to […] ug/ml after 3 to 4 days by agar well diffusion method; type: functional
# [14] = test system: Aspergillus flavus; assay: Antifungal activity against Aspergillus flavus NCIM 524 assessed as growth inhibition after 3 to 4 days by serial plate dilution method; type: functional
# [15] = test system: Staphylococcus aureus; assay: Antibacterial activity against Staphylococcus aureus ATCC 25923 assessed as growth inhibition after 16 to 18 hr by serial plate dilution method; type: functional
# [16] = test system: Mycolicibacterium smegmatis; assay: Antitubercular activity against Mycobacterium smegmatis ATCC 19420 assessed as growth inhibition at 1 to 100 ug/mL after 7 days by resazurin reduction test; type: functional; conditions: ATCC 19420, 168 h
# [17] = test system: Streptococcus pyogenes; type: functional
# Description: Antibacterial activity against Streptococcus pyogenes assessed as growth inhibition at 1.56 to 25 ug/ml after 3 to 4 days by agar well diffusion method
# [18] = test system: Streptococcus pyogenes; assay: Antibacterial activity against Streptococcus pyogenes assessed as growth inhibition after 16 to 18 hr by serial plate dilution method; type: functional
# [19] = test system: Mycolicibacterium fortuitum; assay: Antitubercular activity against Mycobacterium fortuitum ATCC 19542 assessed as growth inhibition at 1 to 100 ug/mL after 7 days by resazurin reduction test; type: functional; conditions: ATCC 19542, 168 h
# [20] = test system: Trichophyton mentagrophytes; assay: Antifungal activity against Trichophyton mentagrophytes assessed as growth inhibition after 3 to 4 days by serial plate dilution method; type: functional
# [21] = test system: Pseudomonas aeruginosa; assay: Antibacterial activity against Pseudomonas aeruginosa ATCC 27853 assessed as growth inhibition after 16 to 18 hr by serial plate dilution method; type: functional
# [22] = test system: Candida albicans; assay: Antifungal activity against Candida albicans assessed as growth inhibition after 3 to 4 days by serial plate dilution method; type: functional
# [23] = test system: Aspergillus fumigatus; assay: Antifungal activity against Aspergillus fumigatus NCIM 902 assessed as growth inhibition at […] to […] ug/ml after 3 to 4 days by agar well diffusion method; type: functional
# [24] = test system: Klebsiella pneumoniae; assay: Antibacterial activity against Klebsiella pneumoniae assessed as growth inhibition after 16 to 18 hr by serial plate dilution method; type: functional
# [25] = test system: Klebsiella pneumoniae; type: functional
# Description: Antibacterial activity against Klebsiella pneumoniae assessed as growth inhibition at 1.56 to 25 ug/ml after 3 to 4 days by agar well diffusion method
# [26] = test system: Escherichia coli; assay: Antibacterial activity against Escherichia coli […] assessed as growth inhibition after 16 to 18 hr by serial plate dilution method; type: functional
structure (smiles),measurement,setting,value
Cn1cc(CCC(=O)NCc2c[nH]c3ccc(OC(F)(F)F)cc23)c2cc(Cl)ccc21,diameter of the inhibition zone (DIZ),[1],11 mm
same,growth inhibition (GI),[2],95%
same,MIC,[2],1 µg/mL
same,diameter of the inhibition zone (DIZ),[3],16 mm
same,MIC,[4],0.625 µg/mL
same,MIC,[5],12.5 µg/mL
same,MIC,[6],1.25 µg/mL
same,diameter of the inhibition zone (DIZ),[7],16 mm
same,diameter of the inhibition zone (DIZ),[8],16 mm
same,diameter of the inhibition zone (DIZ),[9],<10 mm
same,MIC,[10],6.25 µg/mL
same,MIC,[11],10 µg/mL
same,diameter of the inhibition zone (DIZ),[12],16 mm
same,diameter of the inhibition zone (DIZ),[13],11 mm
same,MIC,[14],6.25 µg/mL
same,MIC,[15],6.25 µg/mL
same,MIC,[16],1 µg/mL
same,diameter of the inhibition zone (DIZ),[17],16 mm
same,MIC,[18],6.25 µg/mL
same,MIC,[19],10 µg/mL
same,MIC,[20],25 µg/mL
same,MIC,[21],6.25 µg/mL
same,MIC,[22],12.5 µg/mL
same,diameter of the inhibition zone (DIZ),[23],16 mm
same,MIC,[24],6.25 µg/mL
same,diameter of the inhibition zone (DIZ),[25],16 mm
same,MIC,[26],6.25 µg/mL
O=C(CCc1c[nH]c2ccc(Cl)cc12)NCc1c[nH]c2ccc(Cl)cc12,diameter of the inhibition zone (DIZ),[1],<10 mm
same,growth inhibition (GI),[2],90%
same,MIC,[2],1 µg/mL
same,diameter of the inhibition zone (DIZ),[3],16 mm
same,MIC,[4],0.625 µg/mL
same,MIC,[5],25 µg/mL
same,MIC,[6],1.25 µg/mL
same,diameter of the inhibition zone (DIZ),[7],16 mm
same,diameter of the inhibition zone (DIZ),[8],<10 mm
same,diameter of the inhibition zone (DIZ),[9],16 mm
same,MIC,[10],6.25 µg/mL
same,MIC,[11],10 µg/mL
same,diameter of the inhibition zone (DIZ),[12],16 mm
same,diameter of the inhibition zone (DIZ),[13],<10 mm
same,MIC,[14],25 µg/mL
same,MIC,[15],6.25 µg/mL
same,MIC,[16],1 µg/mL
same,diameter of the inhibition zone (DIZ),[17],11 mm
same,MIC,[18],12.5 µg/mL
same,MIC,[19],10 µg/mL
same,MIC,[20],6.25 µg/mL
same,MIC,[21],6.25 µg/mL
same,MIC,[22],25 µg/mL
same,diameter of the inhibition zone (DIZ),[23],16 mm
same,MIC,[24],6.25 µg/mL
same,diameter of the inhibition zone (DIZ),[25],16 mm
same,MIC,[26],6.25 µg/mL
Cn1cc(CCC(=O)NCCCc2c[nH]c3ccc(OC(F)(F)F)cc23)c2cc(Cl)ccc21,diameter of the inhibition zone (DIZ),[1],16 mm
same,growth inhibition (GI),[2],95%
same,MIC,[2],1 µg/mL
same,diameter of the inhibition zone (DIZ),[3],11 mm
same,MIC,[4],0.625 µg/mL
same,MIC,[5],25 µg/mL
same,MIC,[6],10 µg/mL
same,diameter of the inhibition zone (DIZ),[7],16 mm
same,diameter of the inhibition zone (DIZ),[8],11 mm
same,diameter of the inhibition zone (DIZ),[9],<10 mm
same,MIC,[10],12.5 µg/mL
same,MIC,[11],10 µg/mL
same,diameter of the inhibition zone (DIZ),[12],11 mm
same,diameter of the inhibition zone (DIZ),[13],<10 mm
same,MIC,[14],12.5 µg/mL
same,MIC,[15],6.25 µg/mL
same,MIC,[16],10 µg/mL
same,diameter of the inhibition zone (DIZ),[17],16 mm
same,MIC,[18],6.25 µg/mL
same,MIC,[19],10 µg/mL
same,MIC,[20],25 µg/mL
same,MIC,[21],12.5 µg/mL
same,MIC,[22],6.25 µg/mL
same,diameter of the inhibition zone (DIZ),[23],11 mm
same,MIC,[24],12.5 µg/mL
same,diameter of the inhibition zone (DIZ),[25],11 mm
same,MIC,[26],12.5 µg/mL
CO[C@H]1/C=C/O[C@@]2(C)Oc3c(C)c(O)c4c(O)c(c(/C=N/N5CCN(C)CC5)c(O)c4c3C2=O)NC(=O)/C(C)=C\C=C\[C@H](C)[C@H](O)[C@@H](C)[C@@H](O)[C@@H](C)[C@H](OC(C)=O)[C@@H]1C [RIFAMPIN],growth inhibition (GI),[2],95%
same,MIC,[2],0.5 µg/mL
same,MIC,[4],0.5 µg/mL
same,MIC,[6],1.5 µg/mL
same,MIC,[11],1.5 µg/mL
same,MIC,[16],1.5 µg/mL
same,MIC,[19],1.5 µg/mL
Cn1cc(CCC(=O)NCCCc2c[nH]c3ccc(Cl)cc23)c2cc(Cl)ccc21,diameter of the inhibition zone (DIZ),[1],16 mm
same,growth inhibition (GI),[2],<90%
same,MIC,[2],10 µg/mL
same,diameter of the inhibition zone (DIZ),[3],16 mm
same,MIC,[4],2.5 µg/mL
same,MIC,[5],25 µg/mL
same,MIC,[6],2.5 µg/mL
same,diameter of the inhibition zone (DIZ),[7],16 mm
same,diameter of the inhibition zone (DIZ),[8],<10 mm
same,diameter of the inhibition zone (DIZ),[9],11 mm
same,MIC,[10],25 µg/mL
same,diameter of the inhibition zone (DIZ),[12],16 mm
same,diameter of the inhibition zone (DIZ),[13],<10 mm
same,MIC,[14],25 µg/mL
same,MIC,[15],6.25 µg/mL
same,MIC,[16],10 µg/mL
same,diameter of the inhibition zone (DIZ),[17],11 mm
same,MIC,[18],12.5 µg/mL
same,MIC,[19],> 100 µg/mL
same,MIC,[20],12.5 µg/mL
same,MIC,[21],6.25 µg/mL
same,MIC,[22],6.25 µg/mL
same,diameter of the inhibition zone (DIZ),[23],<10 mm
same,MIC,[24],6.25 µg/mL
same,diameter of the inhibition zone (DIZ),[25],16 mm
same,MIC,[26],6.25 µg/mL
NNC(=O)c1ccncc1 [ISONIAZID],growth inhibition (GI),[2],95%
same,MIC,[2],0.7 µg/mL
same,MIC,[4],0.7 µg/mL
same,MIC,[6],50 µg/mL
same,MIC,[11],12.5 µg/mL
same,MIC,[16],50 µg/mL
same,MIC,[19],12.5 µg/mL
Cn1cc(CCCNC(=O)CCc2cn(C)c3ccc(Cl)cc23)c2cc(Cl)ccc21,diameter of the inhibition zone (DIZ),[1],<10 mm
same,growth inhibition (GI),[2],<90%
same,MIC,[2],10 µg/mL
same,diameter of the inhibition zone (DIZ),[3],<10 mm
same,MIC,[4],5 µg/mL
same,MIC,[5],25 µg/mL
same,MIC,[6],10 µg/mL
same,diameter of the inhibition zone (DIZ),[7],11 mm
same,diameter of the inhibition zone (DIZ),[8],11 mm
same,diameter of the inhibition zone (DIZ),[9],11 mm
same,MIC,[10],12.5 µg/mL
same,diameter of the inhibition zone (DIZ),[12],<10 mm
same,diameter of the inhibition zone (DIZ),[13],<10 mm
same,MIC,[14],12.5 µg/mL
same,MIC,[15],12.5 µg/mL
same,MIC,[16],10 µg/mL
same,diameter of the inhibition zone (DIZ),[17],<10 mm
same,MIC,[18],25 µg/mL
same,MIC,[19],> 100 µg/mL
same,MIC,[20],12.5 µg/mL
same,MIC,[21],25 µg/mL
same,MIC,[22],25 µg/mL
same,diameter of the inhibition zone (DIZ),[23],11 mm
same,MIC,[24],25 µg/mL
same,diameter of the inhibition zone (DIZ),[25],<10 mm
same,MIC,[26],25 µg/mL
